Experimental data from patent US8192962B2, “Processes for detecting toxic substances” (Daikin Industries, Ltd., priority 2001, dated 2012).

System: Metabolism protein genes
Experiment: DNA chip mRNA expression in yeast, metabolism protein genes (Table 7)
Format: cell-based, Saccharomyces cerevisiae S288C
In short: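 Cells were grown at 25° C. in YPD, treated at logarithmic phase for 2 h with a chemical at a concentration inhibiting growth but not causing death, and compared with untreated cultures. Labeled cDNA was hybridized to a DNA chip carrying all yeast genes, and the expression ratio was taken from scanner fluorescence.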

O=[N+]([O-])c1cc[n+]([O-])c2ccccc12 [(5), 4-nitroquinolin-N-oxide]
The level of expressed mRNA in the presence of chemical substance/The level of expressed mRNA in the absence of chemical substance (yeast gene YAL012W): 0.6 | The level of expressed mRNA in the presence of chemical substance/The level of expressed mRNA in the absence of chemical substance (yeast gene YAL038W): 1.4 | The level of expressed mRNA in the presence of chemical substance/The level of expressed mRNA in the absence of chemical substance (yeast gene YAR071W): 1.6 | level of expressed mRNA in the presence/in the absence of chemical substance (yeast gene YBR003W): 0.7 | level of expressed mRNA in the presence/in the absence of chemical substance (yeast gene YBR011C): 0.9 | level of expressed mRNA in the presence/in the absence of chemical substance (yeast gene YBR020W): 1.0 | The level of expressed mRNA in the presence of chemical substance/The level of expressed mRNA in the absence of chemical substance (yeast gene YBR023C): 0.8 | The level of expressed mRNA in the presence of chemical substance/The level of expressed mRNA in the absence of chemical substance (yeast gene YBR029C): 1.4 | The level of expressed mRNA in the presence of chemical substance/The level of expressed mRNA in the absence of chemical substance (yeast gene YBR183W): 0.9 | The level of expressed mRNA in the presence of chemical substance/The level of expressed mRNA in the absence of chemical substance (yeast gene YBR222C): 0.7 | The level of expressed mRNA in the presence of chemical substance/The level of expressed mRNA in the absence of chemical substance (yeast gene YBR256C): 1.6 | The level of expressed mRNA in the presence of chemical substance/The level of expressed mRNA in the absence of chemical substance (yeast gene YBR299W): 1.6 | The level of expressed mRNA in the presence of chemical substance/The level of expressed mRNA in the absence of chemical substance (yeast gene YCL009C): 0.7 | The level of expressed mRNA in the presence of chemical substance/The level of expressed mRNA in the absence of chemical substance (yeast gene YCL064C): 1.4 | level of expressed mRNA in the presence/in the absence of chemical substance (yeast gene YCR010C): 1.7 | level of expressed mRNA in the presence/in the absence of chemical substance (yeast gene YCR034W): 0.9 | The level of expressed mRNA in the presence of chemical substance/The level of expressed mRNA in the absence of chemical substance (yeast gene YCR048W): 0.9 | The level of expressed mRNA in the presence of chemical substance/The level of expressed mRNA in the absence of chemical substance (yeast gene YCR098C): 1.4 | The level of expressed mRNA in the presence of chemical substance/The level of expressed mRNA in the absence of chemical substance (yeast gene YDR019C): 0.9 | level of expressed mRNA in the presence/in the absence of chemical substance (yeast gene YDR050C): 0.9 | level of expressed mRNA in the presence/in the absence of chemical substance (yeast gene YDR073W): 1.2 | level of expressed mRNA in the presence/in the absence of chemical substance (yeast gene YDR123C): 1.6 | level of expressed mRNA in the presence/in the absence of chemical substance (yeast gene YDR178W): 0.9 | level of expressed mRNA in the presence/in the absence of chemical substance (yeast gene YDR277C): 0.8 | level of expressed mRNA in the presence/in the absence of chemical substance (yeast gene YDR284C): 0.8 | level of expressed mRNA in the presence/in the absence of chemical substance (yeast gene YDR345C): 1.3 | The level of expressed mRNA in the presence of chemical substance/The level of expressed mRNA in the absence of chemical substance (yeast gene YDR380W): 1.1 | level of expressed mRNA in the presence/in the absence of chemical substance (yeast gene YDR400W): 1.0 | level of expressed mRNA in the presence/in the absence of chemical substance (yeast gene YDR408C): 0.9 | level of expressed mRNA in the presence/in the absence of chemical substance (yeast gene YDR483W): 0.7 | The level of expressed mRNA in the presence of chemical substance/The level of expressed mRNA in the absence of chemical substance (yeast gene YDR497C): 0.7 | The level of expressed mRNA in the presence of chemical substance/The level of expressed mRNA in the absence of chemical substance (yeast gene YDR502C): 1.5 | The level of expressed mRNA in the presence of chemical substance/The level of expressed mRNA in the absence of chemical substance (yeast gene YDR516C): 1.3 | level of expressed mRNA in the presence/in the absence of chemical substance (yeast gene YEL063C): 1.2 | level of expressed mRNA in the presence/in the absence of chemical substance (yeast gene YER015W): 1.3 | The level of expressed mRNA in the presence of chemical substance/The level of expressed mRNA in the absence of chemical substance (yeast gene YER026C): 1.2 | The level of expressed mRNA in the presence of chemical substance/The level of expressed mRNA in the absence of chemical substance (yeast gene YER053C): 0.6 | The level of expressed mRNA in the presence of chemical substance/The level of expressed mRNA in the absence of chemical substance (yeast gene YER069W): 1.5 | level of expressed mRNA in the presence/in the absence of chemical substance (yeast gene YER081W): 1.1 | The level of expressed mRNA in the presence of chemical substance/The level of expressed mRNA in the absence of chemical substance (yeast gene YER096W): 1.3 | level of expressed mRNA in the presence/in the absence of chemical substance (yeast gene YER120W): 0.8 | The level of expressed mRNA in the presence of chemical substance/The level of expressed mRNA in the absence of chemical substance (yeast gene YER178W): 0.7 | level of expressed mRNA in the presence/in the absence of chemical substance (yeast gene YFL011W): 1.3 | The level of expressed mRNA in the presence of chemical substance/The level of expressed mRNA in the absence of chemical substance (yeast gene YFL014W): 1.0 | The level of expressed mRNA in the presence of chemical substance/The level of expressed mRNA in the absence of chemical substance (yeast gene YFL030W): 1.1 | The level of expressed mRNA in the presence of chemical substance/The level of expressed mRNA in the absence of chemical substance (yeast gene YFL031W): 1.0 | The level of expressed mRNA in the presence of chemical substance/The level of expressed mRNA in the absence of chemical substance (yeast gene YFL056C): 0.9 | The level of expressed mRNA in the presence of chemical substance/The level of expressed mRNA in the absence of chemical substance (yeast gene YFL057C): 0.9 | The level of expressed mRNA in the presence of chemical substance/The level of expressed mRNA in the absence of chemical substance (yeast gene YFR047C): 1.2 | level of expressed mRNA in the presence/in the absence of chemical substance (yeast gene YGL012W): 1.5 | The level of expressed mRNA in the presence of chemical substance/The level of expressed mRNA in the absence of chemical substance (yeast gene YGL022W): 1.0 | level of expressed mRNA in the presence/in the absence of chemical substance (yeast gene YGL115W): 1.2 | The level of expressed mRNA in the presence of chemical substance/The level of expressed mRNA in the absence of chemical substance (yeast gene YGL126W): 1.1 | level of expressed mRNA in the presence/in the absence of chemical substance (yeast gene YGL205W): 1.1 | The level of expressed mRNA in the presence of chemical substance/The level of expressed mRNA in the absence of chemical substance (yeast gene YGL209W): 0.7 | The level of expressed mRNA in the presence of chemical substance/The level of expressed mRNA in the absence of chemical substance (yeast gene YGL248W): 1.3 | The level of expressed mRNA in the presence of chemical substance/The level of expressed mRNA in the absence of chemical substance (yeast gene YGR037C): 1.0 | The level of expressed mRNA in the presence of chemical substance/The level of expressed mRNA in the absence of chemical substance (yeast gene YGR055W): 1.3 | level of expressed mRNA in the presence/in the absence of chemical substance (yeast gene YGR096W): 1.2 | level of expressed mRNA in the presence/in the absence of chemical substance (yeast gene YGR191W): 0.8 | The level of expressed mRNA in the presence of chemical substance/The level of expressed mRNA in the absence of chemical substance (yeast gene YGR194C): 0.8 | level of expressed mRNA in the presence/in the absence of chemical substance (yeast gene YGR204W): 0.6 | The level of expressed mRNA in the presence of chemical substance/The level of expressed mRNA in the absence of chemical substance (yeast gene YGR256W): 0.9 | The level of expressed mRNA in the presence of chemical substance/The level of expressed mRNA in the absence of chemical substance (yeast gene YGR282C): 1.0 | level of expressed mRNA in the presence/in the absence of chemical substance (yeast gene YGR288W): 0.8 | level of expressed mRNA in the presence/in the absence of chemical substance (yeast gene YHR025W): 0.9 | The level of expressed mRNA in the presence of chemical substance/The level of expressed mRNA in the absence of chemical substance (yeast gene YHR111W): 1.5 | The level of expressed mRNA in the presence of chemical substance/The level of expressed mRNA in the absence of chemical substance (yeast gene YHR137W): 1.0 | The level of expressed mRNA in the presence of chemical substance/The level of expressed mRNA in the absence of chemical substance (yeast gene YHR174W): 1.3 | The level of expressed mRNA in the presence of chemical substance/The level of expressed mRNA in the absence of chemical substance (yeast gene YHR176W): 1.0 | level of expressed mRNA in the presence/in the absence of chemical substance (yeast gene YHR210C): 1.8 | level of expressed mRNA in the presence/in the absence of chemical substance (yeast gene YIL006W): 0.8 | The level of expressed mRNA in the presence of chemical substance/The level of expressed mRNA in the absence of chemical substance (yeast gene YIL045W): 1.3 | The level of expressed mRNA in the presence of chemical substance/The level of expressed mRNA in the absence of chemical substance (yeast gene YIL107C): 0.8 | The level of expressed mRNA in the presence of chemical substance/The level of expressed mRNA in the absence of chemical substance (yeast gene YIL154C): 0.9 | The level of expressed mRNA in the presence of chemical substance/The level of expressed mRNA in the absence of chemical substance (yeast gene YIL155C): 1.3 | The level of expressed mRNA in the presence of chemical substance/The level of expressed mRNA in the absence of chemical substance (yeast gene YIL167W): 1.0 | The level of expressed mRNA in the presence of chemical substance/The level of expressed mRNA in the absence of chemical substance (yeast gene YIR031C): 1.6 | The level of expressed mRNA in the presence of chemical substance/The level of expressed mRNA in the absence of chemical substance (yeast gene YIR034C): 1.1 | The level of expressed mRNA in the presence of chemical substance/The level of expressed mRNA in the absence of chemical substance (yeast gene YIR036C): 0.9 | The level of expressed mRNA in the presence of chemical substance/The level of expressed mRNA in the absence of chemical substance (yeast gene YJL031C): 1.7 | The level of expressed mRNA in the presence of chemical substance/The level of expressed mRNA in the absence of chemical substance (yeast gene YJL068C): 0.7 | The level of expressed mRNA in the presence of chemical substance/The level of expressed mRNA in the absence of chemical substance (yeast gene YJL088W): 0.9 | The level of expressed mRNA in the presence of chemical substance/The level of expressed mRNA in the absence of chemical substance (yeast gene YJL099W): 1.9 | level of expressed mRNA in the presence/in the absence of chemical substance (yeast gene YJL121C): 1.0 | level of expressed mRNA in the presence/in the absence of chemical substance (yeast gene YJL167W): 0.7 | The level of expressed mRNA in the presence of chemical substance/The level of expressed mRNA in the absence of chemical substance (yeast gene YJL172W): 0.9 | level of expressed mRNA in the presence/in the absence of chemical substance (yeast gene YJL216C): 0.8 | The level of expressed mRNA in the presence of chemical substance/The level of expressed mRNA in the absence of chemical substance (yeast gene YJL219W): 1.2 | level of expressed mRNA in the presence/in the absence of chemical substance (yeast gene YJR077C): 0.9 | The level of expressed mRNA in the presence of chemical substance/The level of expressed mRNA in the absence of chemical substance (yeast gene YJR137C): 0.6 | level of expressed mRNA in the presence/in the absence of chemical substance (yeast gene YJR143C): 1.6
